According to patent publication US8586588B2, “Aryl pyridazinone derivatives and their use as H3 receptor ligands” (Cephalon, Inc., priority 2006, dated 2013):

What was measured:
human H3 receptor = biological target: T1, human H3 receptor (Homo sapiens, UniProt Q9Y5N1); assay: Human H3 radioligand binding ([3H]-N-alpha-methylhistamine, CHO cell membranes, SPA); settings: Table B, binding constant as letter class
T1 construct: expressed in transfected cells
Outline: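 CHO cell membranes expressing human H3 (10 μg protein/well) incubated 4 h at room temperature, in the dark, with ~1 nM [3H]-N-alpha-methylhistamine, compounds (0.01 nM-30 μM) and SPA beads in 50 mM Tris HCl pH 7.4, 5 mM MgCl2, 0.1% BSA. Non-specific binding defined with 10 μM clobenpropit.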

[1] = biological target: T2, rat histamine H3 receptor (Rattus norvegicus, UniProt Q9QYN8); assay: Rat H3 radioligand binding ([3H]-N-alpha-methylhistamine, CHO-A3 cell membranes, SPA); settings: Table B, binding constant as letter class; read-out: rat H3 Ki
T2 construct: encoding the entire 445-amino-acid rat histamine H3 receptor; expressed in transfected cells
T2 sequence (Q9QYN8 whole entry): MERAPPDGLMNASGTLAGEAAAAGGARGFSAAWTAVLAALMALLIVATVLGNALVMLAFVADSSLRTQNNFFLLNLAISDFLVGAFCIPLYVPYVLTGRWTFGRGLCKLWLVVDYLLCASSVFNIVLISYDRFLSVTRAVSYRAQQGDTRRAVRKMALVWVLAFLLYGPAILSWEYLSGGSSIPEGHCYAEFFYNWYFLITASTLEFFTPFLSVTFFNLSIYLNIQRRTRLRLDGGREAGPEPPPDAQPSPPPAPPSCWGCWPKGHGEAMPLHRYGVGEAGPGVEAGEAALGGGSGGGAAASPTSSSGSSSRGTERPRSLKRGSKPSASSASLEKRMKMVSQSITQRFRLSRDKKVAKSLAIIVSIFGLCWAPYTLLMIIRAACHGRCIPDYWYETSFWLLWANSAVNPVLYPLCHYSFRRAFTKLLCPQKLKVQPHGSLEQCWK
Outline: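 Membranes from CHO-A3 cells stably expressing rat H3 (10 μg protein) incubated 4 h at room temperature in 50 mM Tris-HCl pH 7.4, 5 mM MgCl2, 0.1% BSA with ~1 nM [3H]-N-alpha-methylhistamine and compound (0.01 nM-30 μM). Bound radioligand read by scintillation proximity; nonspecific binding with 10 μM clobenpropit.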

T1 sequence (Q9Y5N1 whole entry): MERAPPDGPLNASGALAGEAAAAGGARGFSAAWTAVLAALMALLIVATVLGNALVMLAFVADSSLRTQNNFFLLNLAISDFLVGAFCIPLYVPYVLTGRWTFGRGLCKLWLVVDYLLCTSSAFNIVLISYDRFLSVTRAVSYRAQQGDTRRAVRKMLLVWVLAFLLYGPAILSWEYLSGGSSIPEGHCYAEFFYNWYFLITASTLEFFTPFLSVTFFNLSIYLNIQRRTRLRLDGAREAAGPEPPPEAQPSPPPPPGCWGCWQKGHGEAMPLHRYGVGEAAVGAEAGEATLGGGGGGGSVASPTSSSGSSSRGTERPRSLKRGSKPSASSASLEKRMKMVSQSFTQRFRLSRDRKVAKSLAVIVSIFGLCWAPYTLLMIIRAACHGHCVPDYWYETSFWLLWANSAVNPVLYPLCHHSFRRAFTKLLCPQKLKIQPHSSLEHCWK

Compound	Ki (human H3 receptor) [nM]	Ki [1] [nM]	melting point
N#Cc1cc(-c2ccc(=O)[nH]n2)ccc1OCCCN1CCCCC1 [Example 130, 2-[3-(piperidin-1-yl)-propoxy]-5-(6-oxo-1,6-dihydro-pyridazin-3-yl)-benzonitrile]	101 to 500	101 to 500	207 to 209 °C
C[C@@H]1CCCN1CCCOc1ccc(-c2ccc(=O)n(CCO)n2)cc1 [Example 131, 2-(2-Hydroxy-ethyl)-6-{4-[3-((R)-2-methyl-pyrrolidin-1-yl)-propoxy]-phenyl}-2H-pyridazin-3-one]	0.1 to 100	0.1 to 100	95 to 98 °C
C[C@H](COc1ccc(-c2ccc(=O)[nH]n2)cc1)CN1CCC[C@H]1C [Example 132]	0.1 to 100	0.1 to 100	163 to 167 °C
O=c1[nH]nc(-c2ccc(OCCCN3CCCCC3)cc2)c2c1CCC2 [Example 133, 4-[4-(3-Piperidin-1-yl-propoxy)-phenyl]-2,5,6,7-tetrahydro-cyclopenta[d]pyridazin-1-one]	0.1 to 100	0.1 to 100	134 °C (dec.)
O=c1ccc(-c2ccc(OCCCN3CCCCC3)cc2)n[nH]1 [Example 134, 6-[4-(3-Piperidin-1-yl-propoxy)-phenyl]-2H-pyridazin-3-one]	0.1 to 100	0.1 to 100	186 °C (dec.)
COc1cc(-c2ccc(=O)[nH]n2)ccc1OCCCN1CCCCC1 [Example 135, 6-[3-Methoxy-4-(3-piperidin-1-yl-propoxy)-phenyl]-2H-pyridazin-3-one]	101 to 500	101 to 500	175 °C (dec.)
COc1cc(-c2ccc(=O)[nH]n2)ccc1OCCCN1CCC[C@H]1C [Example 136, 6-{3-Methoxy-4-[3-((R)-2-methyl-pyrrolidin-1-yl)-propoxy]-phenyl}-2H-pyridazin-3-one]	0.1 to 100	101 to 500	148 °C (dec.)
Cc1cc(OCCCN2CCCCC2)ccc1-c1ccc(=O)[nH]n1 [Example 137, 6-[2-Methyl-4-(3-piperidin-1-yl-propoxy)-phenyl]-2H-pyridazin-3-one]	0.1 to 100	0.1 to 100	114 °C (dec.)
CC(C)N1CCC(COc2ccc(-c3ccc(=O)[nH]n3)cn2)CC1 [Example 140, 6-[6-(1-Isopropyl-piperidin-4-ylmethoxy)-pyridin-3-yl]-2H-pyridazin-3-one]	101 to 500	501 to 1000	188 to 191 °C
O=c1ccc(-c2ccc(OC3CCN(C4CCC4)CC3)nc2)n[nH]1 [Example 141, 6-[6-(1-Cyclobutyl-piperidin-4-yloxy)-pyridin-3-yl]-2H-pyridazin-3-one]	0.1 to 100	0.1 to 100	217 to 219 °C
CC(C)N1CCC(Oc2ccc(-c3ccc(=O)[nH]n3)cn2)CC1 [Example 142, 6-[6-(1-Isopropyl-piperidin-4-yloxy)-pyridin-3-yl]-2H-pyridazin-3-one]	0.1 to 100	101 to 500	195 to 197 °C
CC(C)n1nc(-c2ccc(OC3CCN(C4CCC4)CC3)nc2)ccc1=O [Example 145, 6-[6-(1-Cyclobutyl-piperidin-4-yloxy)-pyridin-3-yl]-2-isopropyl-2H-pyridazin-3-one]	0.1 to 100	0.1 to 100	113 to 115 °C
C[C@@H]1CCCN1CCCOc1ccc(-c2ccc(=O)[nH]n2)cn1 [Example 146, 6-{6-[3-((R)-2-Methyl-pyrrolidin-1-yl)-propoxy]-pyridin-3-yl}-2H-pyridazin-3-one]	0.1 to 100	0.1 to 100	178 to 181 °C
O=c1ccc(-c2ccc(OCCCN3CCCCC3)nc2)n[nH]1 [Example 147, 6-[6-(3-Piperidin-1-yl-propoxy)-pyridin-3-yl]-2H-pyridazin-3-one]	0.1 to 100	101 to 500	155 to 158 °C
O=C1CCC(c2ccc(OC3CCN(C4CCC4)CC3)cc2)=NN1 [Example 150, 6-[4-(1-Cyclobutyl-piperidin-4-yloxy)-phenyl]-4,5-dihydro-2H-pyridazin-3-one]	0.1 to 100	0.1 to 100	196 to 198 °C
O=C1CCC(c2ccc(OC3CCN(C4CCC4)CC3)c(F)c2)=NN1 [Example 151, 6-[4-(1-Cyclobutyl-piperidin-4-yloxy)-3-fluoro-phenyl]-4,5-dihydro-2H-pyridazin-3-one]	0.1 to 100	0.1 to 100	195 to 197 °C

Compound	Ki (human H3 receptor) [nM]	Ki [1] [nM]	melting point
CC1(C)CC(c2ccc(OC3CCN(C4CCC4)CC3)cc2)=NNC1=O [Example 152, 6-[4-(1-Cyclobutyl-piperidin-4-yloxy)-phenyl]-4,4-dimethyl-4,5-dihydro-2H-pyridazin-3-one]	0.1 to 100	0.1 to 100	157 to 158 °C
CC1(C)CC(c2ccc(OC3CCN(C4CCC4)CC3)c(F)c2)=NNC1=O [Example 153, 6-[4-(1-Cyclobutyl-piperidin-4-yloxy)-3-fluoro-phenyl]-4,4-dimethyl-4,5-dihydro-2H-pyridazin-3-one]	0.1 to 100	0.1 to 100	147 to 149 °C
O=c1ccc(-c2ccc(OC3CCN(C4CCCC4)CC3)cc2)n[nH]1 [Example 154, 6-[4-(1-Cyclopentyl-piperidin-4-yloxy)-phenyl]-2H-pyridazin-3-one]	0.1 to 100	0.1 to 100	211 to 213 °C
O=c1ccc(-c2ccc(OC3CCN(C4CCC4)CC3)cc2)n[nH]1 [Example 155, 6-[4-(1-Cyclobutyl-piperidin-4-yloxy)-phenyl]-2H-pyridazin-3-one]	0.1 to 100	0.1 to 100	215 to 220 °C
O=c1ccc(-c2ccc(OC3CCN(C4CCC4)CC3)c(F)c2)n[nH]1 [Example 156, 6-[4-(1-Cyclobutyl-piperidin-4-yloxy)-3-fluoro-phenyl]-2H-pyridazin-3-one]	0.1 to 100	0.1 to 100	236 to 238 °C
O=C1CCC(c2ccc(O[C@@H]3CCN(C4CCCCC4)C3)cc2)=NN1 [Example 159, 6-[4-((R)-1-Cyclohexyl-pyrrolidin-3-yloxy)-phenyl]-4,5-dihydro-2H-pyridazin-3-one]	> 1000	> 1000	184 to 186 °C
O=c1ccc(-c2ccc(O[C@@H]3CCN(C4CCCCC4)C3)cc2)n[nH]1 [Example 160, 6-[4-((R)-1-Cyclohexyl-pyrrolidin-3-yloxy)-phenyl]-2H-pyridazin-3-one]	101 to 500	101 to 500	200 to 202 °C
O=C1CCC(c2ccc(OC3CCN(C4CCC4)CC3)cc2)=NN1C1CCC1 [Example 163, 2-Cyclobutyl-6-[4-(1-cyclobutyl-piperidin-4-yloxy)-phenyl]-4,5-dihydro-2H-pyridazin-3-one]	0.1 to 100	0.1 to 100	120 to 123 °C
O=C1CCC(c2ccc(OC3CCN(C4CCCC4)CC3)cc2)=NN1C1CCC1 [Example 164, 2-Cyclobutyl-6-[4-(1-cyclopentyl-piperidin-4-yloxy)-phenyl]-4,5-dihydro-2H-pyridazin-3-one]	0.1 to 100	0.1 to 100	100 to 104 °C
O=C1CCC(c2ccc(OC3CCNCC3)cc2)=NN1C1CCC1 [Example 165, 2-Cyclobutyl-6-[4-(piperidin-4-yloxy)-phenyl]-4,5-dihydro-2H-pyridazin-3-one]	> 1000	> 1000	168 to 170 °C
O=C1CCC(c2ccc(OC3CCN(C4CCC4)CC3)cc2)=NN1CC(F)(F)F [Example 166, 6-[4-(1-Cyclobutyl-piperidin-4-yloxy)-phenyl]-2-(2,2,2-trifluoro-ethyl)-4,5-dihydro-2H-pyridazin-3-one]	0.1 to 100	0.1 to 100	146 to 147 °C
O=C1CCC(c2ccc(OC3CCN(C4CCCC4)CC3)cc2)=NN1CC(F)(F)F [Example 167, 6-[4-(1-Cyclopentyl-piperidin-4-yloxy)-phenyl]-2-(2,2,2-trifluoro-ethyl)-4,5-dihydro-2H-pyridazin-3-one]	0.1 to 100	0.1 to 100	225 to 227 °C
C[C@@H]1CCCN1CCCOc1ccc(C2=NN(CC(F)(F)F)C(=O)CC2)cc1 [Example 168, 6-{4-[3-((R)-2-Methyl-pyrrolidin-1-yl)-propoxy]-phenyl}-2-(2,2,2-trifluoro-ethyl)-4,5-dihydro-2H-pyridazin-3-one]	0.1 to 100	0.1 to 100	76 to 78 °C
O=C1CCC(c2ccc(OCCCN3CCCCC3)cc2)=NN1CC(F)(F)F [Example 169, 6-{4-[3-piperidin-1-yl-propoxy]-phenyl}-2-(2,2,2-trifluoro-ethyl)-4,5-dihydro-2H-pyridazin-3-one]	0.1 to 100	0.1 to 100	87 to 89 °C
C[C@@H]1CCCN1CCCOc1ccc(-c2ccc(=O)n(CC(F)(F)F)n2)cc1 [Example 170, 6-{4-[3-((R)-2-Methyl-pyrrolidin-1-yl)-propoxy]-phenyl}-2-(2,2,2-trifluoro-ethyl)-2H-pyridazin-3-one]	0.1 to 100	0.1 to 100	121 to 123 °C
O=c1ccc(-c2ccc(OCCCN3CCCCC3)cc2)nn1CC(F)(F)F [Example 171, 6-[4-(3-Piperidin-1-yl-propoxy)-phenyl]-2-(2,2,2-trifluoro-ethyl)-2H-pyridazin-3-one]	0.1 to 100	0.1 to 100	128 to 130 °C
